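Results reflect a 48-hour exposure of cells in 96-well plates to compound at five concentrations. GI50 = concentration required for 50% inhibition of growth. TGI marks complete inhibition of growth.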
Legend:
Test in all cases: NCI-60 cell line screen, 48 h
SK-OV-3 ovarian = test system: SK-OV-3 ovarian
BT-549 breast = test system: BT-549 breast
MCF7 breast = test system: MCF7 breast
NCI-H522 lung = test system: NCI-H522 lung
SW-620 colon = test system: SW-620 colon
NCI/ADR-RES ovarian = test system: NCI/ADR-RES ovarian
U251 CNS = test system: U251 CNS
HT29 colon = test system: HT29 colon
DU-145 prostate = test system: DU-145 prostate
NCI-H460 lung = test system: NCI-H460 lung

CCN(CC)C(=S)N/N=C(/c1ccccc1)c1ccccn1
TGI (SK-OV-3 ovarian): 38.6 µM | TGI (BT-549 breast): > 100 µM | TGI (MCF7 breast): > 54 µM | TGI (NCI-H522 lung): > 100 µM | TGI (SW-620 colon): > 49.4 µM | TGI (NCI/ADR-RES ovarian): 14.3 µM | TGI (U251 CNS): 18.8 µM | TGI (HT29 colon): > 40.1 µM | TGI (DU-145 prostate): > 65.9 µM | TGI (NCI-H460 lung): 0.385 µM

COC1(CC[C@H](C)COC2OC(CO)C(O)C(O)C2O)O[C@H]2C[C@H]3[C@@H]4CC=C5C[C@@H](OC6OC(CO)C(OC7OC(C)C(O)C(O)C7O)C(O)C6OC6OC(C)C(O)C(O)C6O)CC[C@]5(C)[C@H]4CC[C@]3(C)[C@H]2[C@@H]1C (stereo partly specified)
TGI (SK-OV-3 ovarian): 7.99 µM | TGI (BT-549 breast): 13.1 µM | TGI (MCF7 breast): 39.8 µM | TGI (NCI-H522 lung): 5.31 µM | TGI (SW-620 colon): 6.78 µM | TGI (NCI/ADR-RES ovarian): 11.1 µM | TGI (U251 CNS): 7.36 µM | TGI (HT29 colon): 6.8 µM | TGI (DU-145 prostate): 5.77 µM | GI50 (NCI-H460 lung): 4.39 µM | TGI (NCI-H460 lung): 15.1 µM

N#CCCN(CCC#N)c1ccc(C(N=Nc2ccccc2)=Nc2ccc(F)cc2)cc1
TGI (SK-OV-3 ovarian): > 100 µM | TGI (BT-549 breast): > 100 µM | TGI (MCF7 breast): > 100 µM | TGI (NCI-H522 lung): 69.8 µM | TGI (SW-620 colon): > 100 µM | TGI (NCI/ADR-RES ovarian): > 100 µM | TGI (U251 CNS): > 100 µM | TGI (HT29 colon): > 100 µM | TGI (DU-145 prostate): > 100 µM | TGI (NCI-H460 lung): > 100 µM

O=C1CSC(c2c[nH]c3ccccc23)N1c1ccc(Cl)cc1Cl (stereo unspecified)
TGI (SK-OV-3 ovarian): > 100 µM | TGI (BT-549 breast): > 100 µM | TGI (MCF7 breast): > 100 µM | TGI (NCI-H522 lung): > 100 µM | TGI (SW-620 colon): > 100 µM | TGI (NCI/ADR-RES ovarian): > 100 µM | TGI (U251 CNS): > 100 µM | TGI (HT29 colon): > 100 µM | TGI (DU-145 prostate): > 100 µM | TGI (NCI-H460 lung): > 100 µM

Cc1c(C(=O)NNc2ccccc2)n2c(=S)[nH]nc2c2ccccc12
TGI (SK-OV-3 ovarian): > 100 µM | TGI (BT-549 breast): > 100 µM | TGI (MCF7 breast): > 100 µM | TGI (NCI-H522 lung): > 100 µM | TGI (SW-620 colon): > 100 µM | TGI (NCI/ADR-RES ovarian): > 100 µM | TGI (U251 CNS): > 100 µM | TGI (HT29 colon): > 100 µM | TGI (DU-145 prostate): > 100 µM | TGI (NCI-H460 lung): > 100 µM

O=C1C=CC(=O)c2c(O)c(N3CCC[C@@H]3CO)c(Cl)c(O)c21
TGI (SK-OV-3 ovarian): 7.78 µM | TGI (BT-549 breast): 3.7 µM | TGI (MCF7 breast): 2.7 µM | TGI (NCI-H522 lung): 2.36 µM | TGI (SW-620 colon): 3.42 µM | TGI (NCI/ADR-RES ovarian): 6.25 µM | TGI (U251 CNS): 3.46 µM | TGI (HT29 colon): 4.9 µM | TGI (DU-145 prostate): 3.28 µM | TGI (NCI-H460 lung): 3.52 µM

COc1ccc([C@]23CCC4(OCC(C)(C)CO4)[C@H]4CON(O[C@H](O[C@@H]5CCCCC5C(C)(C)c5ccccc5)C2)[C@@H]43)cc1OC (stereo partly specified)
TGI (SK-OV-3 ovarian): > 100 µM | TGI (BT-549 breast): > 100 µM | TGI (MCF7 breast): > 100 µM | TGI (NCI-H522 lung): > 100 µM | TGI (SW-620 colon): > 100 µM | TGI (NCI/ADR-RES ovarian): > 100 µM | TGI (U251 CNS): > 100 µM | TGI (HT29 colon): > 100 µM | TGI (DU-145 prostate): > 100 µM | TGI (NCI-H460 lung): > 100 µM

C[C@H]1[C@H](C)CC[C@]2(C(=O)OC3OC(CO)C(O)C(O)C3O)CC[C@]3(C)C(=CC[C@@H]4[C@@]5(C)C[C@@H](O)[C@@H]6OC(=O)c7cc(O)c(O)c(O)c7-c7c(cc(O)c(O)c7O)C(=O)OC[C@@]6(CO)[C@@H]5CC[C@]43C)[C@H]12 (stereo partly specified)
TGI (SK-OV-3 ovarian): > 100 µM | TGI (BT-549 breast): > 100 µM | TGI (MCF7 breast): 36.4 µM | TGI (NCI-H522 lung): > 100 µM | TGI (SW-620 colon): > 67 µM | TGI (NCI/ADR-RES ovarian): > 100 µM | TGI (U251 CNS): > 100 µM | TGI (HT29 colon): > 57.9 µM | TGI (DU-145 prostate): > 100 µM | TGI (NCI-H460 lung): > 100 µM

CC1=C(C(=O)OCCO[N+](=O)[O-])C(c2ccccc2[N+](=O)[O-])C(C(=O)OC(C)C)=C(C)N1 (stereo unspecified)
TGI (SK-OV-3 ovarian): 39.8 µM | TGI (BT-549 breast): 30.4 µM | TGI (MCF7 breast): 44.9 µM | TGI (NCI-H522 lung): 30.5 µM | TGI (SW-620 colon): 39.9 µM | TGI (NCI/ADR-RES ovarian): 51.7 µM | TGI (U251 CNS): 30 µM | TGI (HT29 colon): 30.3 µM | TGI (DU-145 prostate): 50.4 µM | TGI (NCI-H460 lung): 34.2 µM

CN1c2ccccc2C2=C(c3ccccc3)CC[C@@H](C(=O)N3C4CC5CC[C@@]4(CS3(=O)=O)C5(C)C)[C@@H]21 (stereo partly specified)
TGI (SK-OV-3 ovarian): > 100 µM | TGI (BT-549 breast): > 100 µM | TGI (MCF7 breast): > 100 µM | TGI (NCI-H522 lung): > 100 µM | TGI (SW-620 colon): > 100 µM | TGI (NCI/ADR-RES ovarian): > 100 µM | TGI (U251 CNS): > 100 µM | TGI (HT29 colon): > 100 µM | TGI (DU-145 prostate): > 100 µM | TGI (NCI-H460 lung): > 100 µM

CC1=C(C)SC(=C2Sc3c(n(C)c(=O)n(C)c3=O)S2)S1
TGI (SK-OV-3 ovarian): 33.5 µM | TGI (BT-549 breast): > 100 µM | TGI (MCF7 breast): > 100 µM | TGI (NCI-H522 lung): > 100 µM | TGI (SW-620 colon): > 100 µM | TGI (NCI/ADR-RES ovarian): > 100 µM | TGI (U251 CNS): 18.9 µM | TGI (HT29 colon): > 100 µM | TGI (DU-145 prostate): > 100 µM | TGI (NCI-H460 lung): > 100 µM

CC1(C)OCC(C2OC(C)(C)OC2[C@H]2O[C@@]3(O)[C@H]4[C@H](C=CC[C@@H]42)[C@@H](OCc2ccccc2)[C@H](OCc2ccccc2)[C@H]3OCc2ccccc2)O1 (stereo partly specified)
TGI (SK-OV-3 ovarian): > 100 µM | TGI (BT-549 breast): > 100 µM | TGI (MCF7 breast): > 100 µM | TGI (NCI-H522 lung): > 100 µM | TGI (SW-620 colon): > 100 µM | TGI (NCI/ADR-RES ovarian): > 100 µM | TGI (U251 CNS): > 100 µM | TGI (HT29 colon): 71.3 µM | TGI (DU-145 prostate): > 100 µM | TGI (NCI-H460 lung): > 100 µM

CC[C@H](NC(=O)OC(C)(C)C)C(=O)NCP(=O)(OCc1ccc([N+](=O)[O-])cc1)OCc1ccc([N+](=O)[O-])cc1
TGI (SK-OV-3 ovarian): 86 µM | TGI (BT-549 breast): > 100 µM | TGI (MCF7 breast): > 100 µM | TGI (NCI-H522 lung): > 100 µM | TGI (SW-620 colon): > 100 µM | TGI (NCI/ADR-RES ovarian): > 100 µM | TGI (U251 CNS): 97.1 µM | TGI (HT29 colon): 51.8 µM | TGI (DU-145 prostate): > 100 µM | TGI (NCI-H460 lung): > 100 µM

CCc1nc2c(c(N(C)C)c1C(=O)OC)CCc1ccccc1-2
TGI (SK-OV-3 ovarian): 51.4 µM | TGI (BT-549 breast): > 100 µM | TGI (MCF7 breast): 48.2 µM | TGI (NCI-H522 lung): 45.6 µM | TGI (SW-620 colon): > 100 µM | TGI (NCI/ADR-RES ovarian): > 100 µM | TGI (U251 CNS): > 100 µM | TGI (HT29 colon): > 100 µM | TGI (DU-145 prostate): 40.9 µM | TGI (NCI-H460 lung): > 100 µM

CCC1(CC)C(=O)N(C(=O)c2cc(OC)c(OC)c(OC)c2)N(C(=O)c2cc(OC)c(OC)c(OC)c2)C1=O
TGI (SK-OV-3 ovarian): > 50 µM | TGI (BT-549 breast): > 50 µM | TGI (MCF7 breast): > 50 µM | TGI (NCI-H522 lung): > 50 µM | TGI (SW-620 colon): > 50 µM | TGI (NCI/ADR-RES ovarian): > 50 µM | TGI (U251 CNS): > 50 µM | TGI (HT29 colon): > 50 µM | TGI (DU-145 prostate): > 50 µM | TGI (NCI-H460 lung): > 50 µM

C[As+](C)(c1ccc(Br)c([N+](=O)[O-])c1)c1ccc(Br)c([N+](=O)[O-])c1.O=[N+]([O-])O
TGI (SK-OV-3 ovarian): > 100 µM | TGI (BT-549 breast): > 100 µM | TGI (MCF7 breast): > 100 µM | TGI (NCI-H522 lung): > 100 µM | TGI (SW-620 colon): > 100 µM | TGI (NCI/ADR-RES ovarian): > 100 µM | TGI (U251 CNS): > 100 µM | TGI (HT29 colon): > 100 µM | TGI (DU-145 prostate): > 100 µM | TGI (NCI-H460 lung): > 100 µM

NCCCCNCCCN1CCOC1=O
TGI (SK-OV-3 ovarian): > 100 µM | TGI (BT-549 breast): > 100 µM | TGI (MCF7 breast): > 100 µM | TGI (NCI-H522 lung): > 100 µM | TGI (SW-620 colon): > 100 µM | TGI (NCI/ADR-RES ovarian): > 100 µM | TGI (U251 CNS): > 100 µM | TGI (HT29 colon): > 100 µM | TGI (DU-145 prostate): > 100 µM | TGI (NCI-H460 lung): > 100 µM

Reference: PubChem BioAssay (NCI)
